Counter-ions that a name gives are not always drawn. Like-named read-outs stand apart in the source and are kept apart here.
How the values were obtained:
[1] = test system: RF strain of HIV (CEM-SS cells); assay: Cell Culture Anti-HIV Activity (cell viability, formazan); assay type: cell-based; conditions: CEM-SS cells, RF strain of HIV, multiplicity of infection 0.04, 6 days at 37° C., 450 nm, read-out: HIV (CEM Cells) IC50
Procedure: The antiviral activity of aminediol inhibitors of the present invention was evaluated by a microculture method which determines the increase in cell viability of an infected culture when a drug is added. The assay depends on the metabolic reduction of tetrazolium reagent by viable cells to yield a soluble colored formazan product.
The assay was performed as follows: suspensions of CEM-SS cells (5000/well) were infected with the RF strain of HIV at a multiplicity of infection at 0.04 in a 96-well plate. The compounds of the present invention listed in the following Table 1, serially diluted in half-log fashion, were added to the infected and uninfected control cells. Untreated (infected and uninfected) cells were included as controls. Following incubation for 6 days at 37° C., viable cells in each well were quantitated by the visible light absorbance at 450 nm.
The IC50 was calculated as the concentration of drug that increased the formazan production in virally infected cells to 50% of that produced by uninfected cells in the absence of drug.

HIV protease = molecular target: T1, HIV protease (Human immunodeficiency virus type 1 group M subtype B, UniProt P04585); assay: HIV Protease Assay; assay type: biochemical
T1 construct: and purified protease
Procedure, shortened: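 Purified protease cleaved 450 μM octapeptide substrate in 50 mM sodium acetate pH 5.5 with 100 μg/ml BSA for 30 minutes at 37° C; product analyzed by reverse-phase HPLC at UV220 after H3PO4 quench. Inhibitors tested at final 10 μM with 4% DMSO.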

[2] = Human immunodeficiency virus 1, CEM-SS, 144 h
[3] = pH 5.5, 10 μM inhibitor, 4% DMSO, 450 μM substrate, pH 5.5, 30 minutes at 37° C., RP-HPLC, read-out: HIV Protease % Inhibition at 10 μM
[4] = pH 5.5, read-out: HIV Protease % Inhibition at 10 μM

Row | SMILES | IC50 [1, 2] | inhibition at 10 µM (HIV protease; [3]) | further results
1 | CN(C(=O)OC(C)(C)C)[C@@H](Cc1ccccc1)[C@H](O)CNC[C@@H](O)[C@H](Cc1ccccc1)NC(=O)OC(C)(C)C [Compound 132, [1S-[1R*,2S*(2S*,3R*)]]-3-[[(1,1-Dimethylethoxy)carbonyl]amino]-2-hydroxy-4-phenylbutyl]amino]-2-hydroxy-1-(phenylmethyl)-propyl]methylcarbamic acid, 1,1-dimethylethyl ester] | > 3000 nM | 65% | 
2 | CC(C)(C)OC(=O)N[C@@H](Cc1ccccc1)[C@H](O)CNC[C@@H](O)[C@H](Cc1ccccc1)NC(=O)C1NC(=O)c2ccccc21 (stereo partly drawn) [Compound 223, [1S-[1R*,2S*(2S*,3R*)]]-[3-[[3-[[(2,3-Dihydro-3-oxo-1H-isoindol-1-yl)carbonyl]amino]-2-hydroxy-4-phenylbutyl]amino]-2-hydroxy-1-(phenylmethyl)propyl]carbamic acid, 1,1-dimethylethyl ester] | 1400 nM | 89% | 
3 | CC(C)(C)OC(=O)N[C@@H](Cc1ccccc1)[C@H](O)CNC[C@@H](O)[C@H](Cc1ccccc1)NC(=O)[C@](C)(O)C(C)(C)C [Compound 262, [1S-[1R*,2S*[2S*,3R*(S*)]]]-[3-[[3-[(2-Hydroxy-2,3,3-trimethyl-1-oxobutyl)amino]-2-hydroxy-4-phenylbutyl]amino]-2-hydroxy-1-(phenylmethyl)propyl]carbamic acid, 1.1-dimethylethyl ester] | 30 nM |  | inhibition at 10 µM (HIV protease; [4]): 100%
4 | CC(C)[C@H](NC(=O)OC[C@@H](O)CO)C(=O)N[C@@H](Cc1ccccc1)[C@H](O)CNC[C@@H](O)[C@H](Cc1ccccc1)NC(=O)OC(C)(C)C (relative stereo) [Compound 202, [[1R*,2S*(2S*,3R*)],N^2-(R*)]-N^2-[(2,3-Dihydroxypropoxy)carbonyl]-N-[3-[[3-[[(1,1-dimethylethoxy)carbonyl]amino]-2-hydroxy-4-phenylbutyl]amino]-2-hydroxy-1-(phenylmethyl)propyl]-L-valinamide] | 16000 nM | 95% | 
5 | CC(C)[C@H](NC(=O)OCc1ccccn1)C(=O)N[C@@H](Cc1ccccc1)[C@H](O)CNC[C@@H](O)[C@H](Cc1ccccc1)NC(=O)OC(C)(C)C [Compound 70, [S-[1R*,2S*(2S*,3R*)]]-N-[3-[[3-[[(1,1-Dimethylethoxy)carbonyl]amino]-2-hydroxy-4-phenylbutyl]amino]-2-hydroxy-1-(phenylmethyl)-propyl]-N^2-(2-pyridinylmethoxy)carbonyl]-L-valinamide] | 500 nM | 100% | 
6 | CN(CC(O)[C@H](Cc1ccccc1)NC(=O)OC(C)(C)C)C[C@@H](O)[C@H](Cc1ccccc1)NC(=O)OC(C)(C)C (stereo partly drawn) [Compound 198, [1S-[1R*,2S*(3R*)]]-[3-[[3-[[(1,1-Dimethylethoxy)carbonyl]-amino]-2-hydroxy-4-phenylbutyl]-methylamino]-2-hydroxy-1-(phenylmethyl)propyl]-carbamic acid, 1,1-dimethylethyl ester] | > 14000 nM | 10% | 
7 | COC(=O)N[C@H](C(=O)N[C@@H](Cc1ccccc1)[C@H](O)CNC[C@@H](O)[C@H](Cc1ccccc1)NC(=O)OC(C)(C)CO)C(C)(C)C (relative stereo) [Compound 359, [1R*,2S*(2S*,3R*)]-N-[2-Hydroxy-3-[[2-hydroxy-3-[[(2-hydroxy-1,1-dimethylethoxy)-carbonyl]amino]-4-phenylbutyl]amino]-1-(phenylmethyl)propyl]-N^2-(2-methoxycarbonyl)-3-methyl-L-valinamide] | 560 nM | 99% | 
8 | CC(C)(C)OC(=O)N[C@@H](Cc1ccccc1)[C@H](O)CNC[C@@H](O)[C@H](Cc1ccc(OCCn2ccnc2)cc1)NC(=O)OC(C)(C)C [Compound 290, [1S-[1R*,2S*(2S*,3R*)]]-[3-[[3-[[(1,1-Dimethylethoxy)carbonyl]amino]-2-hydroxy-4-[4-[2-(1H-imidazol-1-yl)-ethoxy]phenyl]butyl]amino]-2-hydroxy-1-(phenylmethyl)-propyl]carbamic acid, 1,1-dimethylethyl ester] | 60 nM |  | inhibition at 10 µM (HIV protease; [4]): 99%
9 | CC(C)(C)OC(=O)N[C@@H](Cc1ccccc1)[C@H](O)CNC[C@@H](O)[C@H](Cc1ccccc1)NC(=O)C(C)(C)O [Compound 278, [1S-[1R*,2S*(2S*,3R*)]]-[2-Hydroxy-3-[[2-hydroxy-3-[(2-hydroxy-2-methyl-1-oxoproply)amino]-4-phenylbutyl]amino]-1-(phenylmethyl)propyl]carbamic acid, 1,1-dimethylethyl ester] | 840 nM |  | inhibition at 10 µM (HIV protease; [4]): 94%
10 | CC(C)[C@H](NC(=O)CNC(=O)OC(C)(C)C)C(=O)N[C@@H](Cc1ccccc1)[C@H](O)CNC[C@@H](O)[C@H](Cc1ccccc1)NC(=O)[C@@H](NC(=O)CNC(=O)OC(C)(C)C)C(C)C [Compound 99, [S-(1R*,2S*)]-N,N'-[Iminobis[2-hydroxy-1-(phenylmethyl)-3,1-propanediyl]]bis [N^2-[[[1,1-dimethylethoxy)carbonyl]-amino]acetyl]-L-valinamide]] | > 100000 nM | 99% | 
11 | CCC(C)(C)OC(=O)N[C@@H](Cc1ccccc1)[C@H](O)CNC[C@@H](O)[C@H](Cc1ccccc1)NC(=O)OC(C)(C)CC [Compound 138, [R-(R*,S*)]-[Iminobis[2-hydroxy-1-(phenylmethyl)-3,1-propandiyl]]biscarbamic acid, bis(1,1-dimethylpropyl)ester] | > 800 nM | 98% | 
12 | CC(C)[C@H](NC(=O)OCCO)C(=O)N[C@@H](Cc1ccccc1)[C@H](O)CNC[C@@H](O)[C@H](Cc1ccccc1)NC(=O)OC(C)(C)C (relative stereo) [Compound 218, [1R*,2S*(2S*,3R*)]-N-[3-[[3-[[(1,1-Dimethylethoxy)carbonyl]amino]-2-hydroxy-4-phenylbutyl]amino]-2-hydroxy-1-(phenylmethyl)propyl]-N^2-[(2-hydroxyethoxy)carbonyl]-L-valinamide] | 1100 nM | 96% | 
13 | CC(C)C(NC(=O)OCc1ccccc1)C(=O)NC(Cc1ccccc1)C(O)CNCC(O)C(Cc1ccccc1)NC(=O)C(NC(=O)OCc1ccccc1)C(C)C [Compound 82, [S-[1R*,2R*(2S*,3R*)]]-N-[2-Hydroxy-3-[[2-hydroxy-4-phenyl-3-[[[N-(phenylmethoxy)carbonyl]-L-valyl]amino]butyl]amino]-1-(phenylmethyl)propyl]-N-^2-[(phenylmethoxy)carbonyl]-L-valinamide] | > 3000 nM | 94% | 
14 | CC(C)[C@H](NC(=O)NCc1nc2ccccc2[nH]1)C(=O)N[C@@H](Cc1ccccc1)[C@H](O)CNC[C@@H](O)[C@H](Cc1ccccc1)NC(=O)OC(C)(C)C (relative stereo) [Compound 273, [1R*,2S*(2S*,3R*)]-N^2-[[(1H-Benzimidazol-2-ylmethyl)amino]carbonyl]-N-[3-[[3-[[(1,1-dimethylethoxy)carbonyl]amino]-2-hydroxy-4-phenylbutyl]amino]-2-hydroxy-1-(phenylmethyl)propyl]-L-valinamide] | 1700 nM | 100% | 
15 | CC(C)(C)OC(=O)N[C@@H](Cc1ccccc1)[C@H](O)CNC[C@@H](O)[C@H](Cc1ccccc1)NC(=O)C1(O)CCCC1(C)C (single isomer, unassigned; isomer b) [Compound 322, [1S-[1R*,2S*(2S*,3R*)]]-[3-[[3-[[2,2-Dimethyl-1-hydroxycyclopentyl)-carbonyl]amino]-2-hydroxy-4-phenylbutyl]amino]-2-hydroxy-1-(phenylmethyl)-propyl]carbamic acid, 1,1-dimethylethyl ester, isomer B] |  |  | IC50 [1]: 20 nM; HIV Protease % Inhibition at 10 μM (HIV protease): 100%
16 | CC(C)(C)OC(=O)N[C@@H](Cc1ccccc1)[C@H](O)CNC[C@@H](O)[C@H](Cc1ccccc1)NC(=O)C1NC(=O)CC1(C)C (single isomer, unassigned) [Compound 267, [1S-[1R*,2S*(2S*,3R*)]]-[3-[[3-[[(3,3-Dimethyl-5-oxo-2-pyrrolidinyl)carbonyl]amino]-2-hydroxy-4-phenylbutyl]amino]-2-hydroxy-l-(phenylmethyl)propyl]carbamic acid, 1,1-dimethylethyl ester] | 180 nM |  | HIV Protease % Inhibition at 10 μM (HIV protease; 10 μM inhibitor, 4% DMSO, 450 μM substrate, pH 5.5, 30 minutes at 37° C., RP-HPLC): 97%
17 | CC(C)[C@H](NC(=O)[C@@H](N)CO)C(=O)N[C@@H](Cc1ccccc1)[C@H](O)CNC[C@@H](O)[C@H](Cc1ccccc1)NC(=O)OC(C)(C)C (relative stereo) [Compound 212, [1R*,2S*(2S*,3R*)]-N-[N-[3-[[3-[[(1,1-Dimethylethoxy)carbonyl]amino]-2-hydroxy-4-phenylbutyl]amino]-2-hydroxy-1-(phenylmethyl)propyl]-L-valyl]-L-serinamide, fumarate (2:3) salt] | 3800 nM | 99% | 

— patent US5760036A, “Aminediol protease inhibitors” (E. R. Squibb & Sons, Inc., priority 1995, dated 1998)
